Publication PMC11626952, “Preclinical evaluation of radiolabeled tissue factor-targeted peptide for theranostics of hepatocellular carcinoma post percutaneous ethanol injection” (Theranostics, 2024)
Where a SMILES comes first, the peptide text is derived from it. Side-chain parts run from the residue outwards. The star is where a group is joined. NOTA = O=C(O)CN1CCN(CC(=O)O)CCN(CC(=O)*)CC1; PEG8 = NCCOCCOCCOCCOCCOCCOCCOCCOCCC(=O)O

How the values were obtained:
[1] = assay type: physicochemical
Text: (§1) instant thin layer chromatography. The stability of Al18F-NOTA-tTF in PBS (C) and FBS (D) via
(§2) instant thin layer chromatography. The stability of 68Ga-DOTA-tTF in PBS (E) and FBS (F) via
(§3) instant thin layer chromatography.
(§4) FBS: fetal bovine serum; PBS: phosphate-buffered saline.

[2] = assay type: in vitro ADME, bovine
Text: as §1, §2, §3, §4

[3] = parameters: species or system Kunming mice; details: mouse, in vivo
Procedure: increased to 95 °C, and maintained for 15 min. The crude product was purified using a C18 Sep-Pak cartridge and sterilized for subsequent applications. Radiolabeling efficiency was assessed using radio-thin-layer chromatography with citrate solvent (0.1 M, pH 4.0) as the mobile phase.
Small animal biodistribution and pharmacokinetics study of Al18F-NOTA-tTF A small animal biodistribution experiment was conducted with female Kunming mice (5 weeks). The mice were divided into six groups with 3-4 mice in each group. Al18F-NOTA-tTF (1.2 MBq) was injected into KM mice via the tail vein and a 1% injected dose of Al18F-NOTA-tTF was prepared for reference. At 5 min,15 min, 30 min, 60 min, 90 min and 120 min post-injection, the KM mice were euthanized and organs of interest were collected, wet-weighed. The uptake in various organs and tissues was determined and expressed in terms of the percentage injected dose per gram (%ID/g, mean ± SD) after quantifying the radioactivity of the samples using an […]
For the pharmacokinetic study, each Kunming mouse was intravenously injected with a 3.7 MBq of Al18F-NOTA-tTF. Small amounts of blood were obtained through the orbital vein of the […]
weighed and measured for radioactivity by the γ-counter. The results are expressed as the percentage injected dose per gram (%ID/g).
(§5) Al18F-NOTA-tTF PET/CT imaging in mice bearing Hepa1-6 xenografts
(§6) Al18F-NOTA-tTF PET/CT imaging of Hepa1-6 tumor-bearing mice were intravenously injected with 100 μL of Al18F-NOTA-tTF (2.96 MBq). In the blocking experiments, unlabeled excess precursors (0.2 mg) were co-injected with Al18F-NOTA-tTF into Hepa1-6 mice (n = 3).
One hour after Al18F-NOTA-tTF injection, the mice were anesthetized and placed in the prone

tissue factor (TF) [4] = biological target: T1, tissue factor (TF) (Mus musculus, UniProt P20352); test: Al18F-NOTA-tTF PET/CT imaging in Hepa1-6 tumor-bearing mice; assay type: in vivo; details: for tumor uptake SUVmax, PEI group: n = 8
T1 construct: Hepa1-6 tumor-bearing mice received an intravenous injection of 100 μL of Al^18F-NOTA-tTF (2.96 MBq); from tissue; host or cells: subcutaneous Hepa1-6 tumours in male C57BL/6 mice
T1 sequence (P20352 29-294): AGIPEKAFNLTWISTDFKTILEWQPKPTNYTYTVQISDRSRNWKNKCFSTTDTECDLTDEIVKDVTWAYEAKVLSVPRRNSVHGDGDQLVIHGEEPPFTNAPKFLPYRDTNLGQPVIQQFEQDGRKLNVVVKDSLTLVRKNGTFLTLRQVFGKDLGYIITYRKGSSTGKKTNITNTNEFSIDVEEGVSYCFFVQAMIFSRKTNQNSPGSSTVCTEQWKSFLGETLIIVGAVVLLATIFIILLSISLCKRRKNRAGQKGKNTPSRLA
Procedure: […] Al^18F-NOTA-tTF PET/CT imaging was conducted on days 1 and 6 post-PEI. Hepa1-6 tumor-bearing mice received an intravenous injection of 100 μL of Al^18F-NOTA-tTF (2.96 MBq). Tumor volume and mouse body weight were monitored every 2 to 3 days. Biodistribution studies were performed on days 1 and 6 post-PEI, with mice divided into PEI and NC groups. Al^18F-NOTA-tTF (1.2 MBq) was administered via tail vein injection, and biodistribution results were expressed as the percentage of injected dose per gram (%ID/g).
Tumor-bearing mice were randomly divided into the HD-PEI treatment (HD-PEI, n = 8), LD-PEI treatment (LD-PEI, n = 8), and negative control (NC, n = 8) groups. Al^18F-NOTA-tTF PET/CT imaging was conducted on days 1, 5, and 12 post-PEI.^ 18F-FDG PET/CT imaging was conducted on days 2, 6, and 13 post-PEI. Hepa1-6 tumor-bearing mice received intravenous injections of 100 μL of Al^18F-NOTA-tTF (2.96 MBq) and^ 18F-FDG (2.96 MBq). Tumor volume and mouse body weight were monitored every 2 days. […]
increased to 95 °C, and maintained for 15 min. The crude product was purified using a C18 Sep-Pak cartridge and sterilized for subsequent applications. Radiolabeling efficiency was assessed using radio-thin-layer chromatography with citrate solvent (0.1 M, pH 4.0) as the mobile phase. […]
as §5, §6
One hour after Al18F-NOTA-tTF injection, the mice were anesthetized and placed in the prone […]
position on the scanning bed. The PET/CT imaging was acquired with a PET/CT scanner (uBio-EXPLORER, United Imaging, China). PET images were collected for 10 min and reconstructed to get more high-resolution images using an ordered subsets expectation maximization (OSEM) algorithm (4 OSEM iterations, resolution: 1.4 mmHD) with scatter, attenuation, and decay corrections applied. Regions of interest (ROIs) were drawn on the CT images and further mapped on PET. The SUVmax of the tumor and muscle were calculated and referred to as the tumor-to- […]
PEI treatment and efficacy monitoring
In this study, we established a model of incomplete ablation of hepatocellular carcinoma using percutaneous ethanol injection (PEI). Once the tumor volume reached approximately 100 mm3, all mice were randomly assigned to treatment, sham treatment, and negative control groups.
During the PEI procedure, an insulin needle was inserted along the long diameter of the tumor, with needle depth set at1/2 to 2/3 of the tumor diameter. Ethanol was injected at a rate of 25 μL every half minute, and the needle was slowly withdrawn after 5 minutes of injection. Ethanol leakage from the tumor was assessed using CT scans immediately following PEI treatment, defined as day 0. Subsequently, 18F-FDG PET/CT imaging was performed on day 1 post-PEI to evaluate therapeutic efficacy. Tumor volume and mouse body weight were monitored every 2 to 3 days. Tumor volume was calculated using the formula volume = (length × width^2)/2.
Radioligand therapy study
Mice were randomly assigned to five groups: PEI (group 1, n = 10), PEI + 0.45 mCi 177Lu-DOTA-tTF (group 2, n = 10), PEI + 0.75 mCi 177Lu-DOTA-tTF (group 3, n = 8), 0.45 mCi 177Lu-DOTA-tTF (group 4, n = 10), and saline (group 5, n = 10). During radiotherapy, one mouse died in […]

in vivo = test: in vivo; parameters: species or system mice; details: mouse, iv, 1.2 MBq, total radioactivity, tumor uptake (biodistribution), PEI group
Procedure: (§7) We randomly divided tumor-bearing mice into the HD-PEI treatment (HD-PEI, n = 8), sham treatment (Sham, n = 8), and negative control groups (NC, n = 6). Al^18F-NOTA-tTF PET/CT imaging was conducted on days 1 and 6 post-PEI. Hepa1-6 tumor-bearing mice received an intravenous injection of 100 μL of Al^18F-NOTA-tTF (2.96 MBq). Tumor volume and mouse body weight were monitored every 2 to 3 days. Biodistribution studies were performed on days 1 and 6 post-PEI, with mice divided into PEI and NC groups. Al^18F-NOTA-tTF (1.2 MBq) was administered via tail vein injection, and biodistribution results were expressed as the percentage of injected dose per gram (%ID/g).

tissue factor (TF) [5] = biological target: T1, tissue factor (TF); test: in vivo; parameters: species or system mice; details: iv, 1.2 MBq, 1 h
Procedure: as §7

[6] = HD/LD-PEI models, day 1 post-PEI
[7] = HD/LD-PEI models, day 5 post-PEI
[8] = HD/LD-PEI models, day 12 post-PEI
[9] = day 1 post-PEI, 60 min post-injection, n = 6

CC(C)C[C@H](NC(=O)[C@@H](NC(=O)[C@@H](N)CCCNC(=N)N)[C@@H](C)O)C(=O)N[C@@H](C)C(=O)N[C@@H](Cc1ccccc1)C(=O)N[C@H](C(=O)N[C@@H](CCCNC(=N)N)C(=O)N[C@@H](Cc1ccccc1)C(=O)N[C@@H](CCCCNC(=O)CCOCCOCCOCCOCCOCCOCCOCCOCCNC(=O)CN1CCN(CC(=O)O)CCN(CC(=O)O)CC1)C(=O)O)C(C)C [Al^18F-NOTA-tTF] (H-RTLAFVRFK([PEG8-NOTA])-OH)
Vitro stability in PBS [1]: > 95% (3 h)
Vitro stability in FBS [2]: > 95% (3 h)
in vitro stability in saline or fetal bovine serum [2]: remained stable
renal clearance [3]: rapid renal clearance
distribution phase half-life (Half-life Fast) ([3]; iv): 1.192 min
elimination phase half-life (Half-life Slow) ([3]; iv): 12.29 min
tumor uptake SUVmax, NC group (tissue factor (TF) [4]; HD/LD-PEI models, day 1): 0.12 ± 0.04
tumor uptake SUVmax, HD-PEI group (tissue factor (TF) [4]; [6]): 0.42 ± 0.17
tumor uptake SUVmax, LD-PEI group (tissue factor (TF) [4]; [6]): 0.54 ± 0.23
tumor uptake SUVmax, NC group (tissue factor (TF) [4]; HD/LD-PEI models, day 5): 0.16 ± 0.06
tumor uptake SUVmax, HD-PEI group (tissue factor (TF) [4]; [7]): 0.33 ± 0.09
tumor uptake SUVmax, LD-PEI group (tissue factor (TF) [4]; [7]): 0.30 ± 0.09
tumor SUVmax, HD-PEI group (tissue factor (TF) [4]; [8]): 0.25 ± 0.10
tumor SUVmax, LD-PEI group (tissue factor (TF) [4]; [8]): 0.31 ± 0.08
tumor uptake SUVmax, blocked (tissue factor (TF) [4]; Hepa1-6 tumor-bearing mice, 0.2 mg unlabeled precursor, 60 min post-injection, n = 3): 0.07 ± 0.010
tumor uptake SUVmax, non-blocked (tissue factor (TF) [4]; Hepa1-6 tumor-bearing mice, 60 min post-injection, n = 3): 0.13 ± 0.005
tumor uptake SUVmax, NC group (tissue factor (TF) [4]; [9]): 0.12 ± 0.03
tumor uptake SUVmax, Sham group (tissue factor (TF) [4]; [9]): 0.15 ± 0.04
tumor uptake SUVmax, PEI group (tissue factor (TF) [4]; day 1 post-PEI, 60 min post-injection): 0.62 ± 0.14
tumor uptake SUVmax, NC group (tissue factor (TF) [4]; day 6 post-PEI, n = 6): 0.11 ± 0.03
tumor uptake SUVmax, Sham group (tissue factor (TF) [4]; day 6 post-PEI, n = 6): 0.11 ± 0.01
tumor uptake SUVmax, PEI group (tissue factor (TF) [4]; day 6 post-PEI): 0.46 ± 0.23
tissue uptake at 1 h (in vivo): 0.77 ± 0.25 %ID/g
tumor uptake (biodistribution), PEI group (tissue factor (TF) [5]): 0.50 ± 0.28 %ID/g
